This is an account of results in article PMC12354831 (Cell Death Discovery, 2025).

In this series the target is T1, GLUT3 N413A (Homo sapiens, UniProt P11169, N413A).
T1 construct: expressed in transfected cells; host or cells: U87 and U343 per methods
T1 sequence (P11169 1-496 N413A): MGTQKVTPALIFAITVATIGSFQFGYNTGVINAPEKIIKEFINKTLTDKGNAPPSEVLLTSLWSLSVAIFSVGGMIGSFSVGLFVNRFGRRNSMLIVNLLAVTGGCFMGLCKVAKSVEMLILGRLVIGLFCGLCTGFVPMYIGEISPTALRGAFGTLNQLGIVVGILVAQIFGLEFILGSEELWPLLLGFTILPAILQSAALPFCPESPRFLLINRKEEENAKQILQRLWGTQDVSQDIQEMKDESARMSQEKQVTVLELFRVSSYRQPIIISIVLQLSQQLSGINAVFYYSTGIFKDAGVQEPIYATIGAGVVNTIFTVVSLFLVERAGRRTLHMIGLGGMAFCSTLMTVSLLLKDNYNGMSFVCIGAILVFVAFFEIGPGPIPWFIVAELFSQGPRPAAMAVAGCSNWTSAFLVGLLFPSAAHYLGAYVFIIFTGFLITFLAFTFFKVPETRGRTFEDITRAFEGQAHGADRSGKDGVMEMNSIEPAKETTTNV
The series can be described thus: TMZ uptake by U251-MG cells stably expressing GLUT3 N413A vs WT GLUT3 (LC-MS/MS). It counts as in vitro ADME. As to the method:
A total of 6 × 10^6 cells were seeded into each well of a 6 cm Petri dish and cultured at 37 °C in a humidified atmosphere containing 5% CO2 for 8 h. The cells were then washed twice with PBS (137 mM NaCl, 2.7 mM KCl, 10 mM Na2HPO4, 1.8 mM KH2PO4, pH 7.4) and incubated in transport buffer (140 mM NaCl, 5 mM KCl, 2 mM MgCl2, 2 mM CaCl2, 30 mM Tris-HCl, pH 7.4) for 15 min at 37 °C. […] Cell supernatants were collected and stored at 4 °C for subsequent extraction. The harvested cells were washed three times with PBS and extracted with 500 µL of 80% methanol for 30 min at −80 °C. The cell lysate was then centrifuged at 14,000 × g for 5 min at 4 °C, followed by 2 min of sonication. The supernatant was transferred to a new centrifuge tube. For LC-MS/MS analysis, the cell supernatants and cell lysates were diluted at a specific ratio. A total of 100 µL of each sample was mixed with 100 µL of acetonitrile (or standard reagent) and 300 µL of internal standard solution (^2H3-TMZ 100 ng/mL and ^2H11-CAPE 20 ng/mL dissolved in acetonitrile). […] Quality control (QC) samples were prepared and analyzed alongside the experimental samples to monitor the stability and repeatability of the instrument. QC samples were inserted regularly and analyzed every 6–12 samples. Each experiment was repeated 5–6 times. […]

For the compound `Cn1nnc2c(C(N)=O)ncn2c1=O` [TMZ], the “reduction in drug uptake” value is on record as 40–50%.
